According to the supplement of paper PMC4858399:
Counter-ions that a name gives are not always drawn.

Columns and labels:
Details in all cases: exposure time 48 h
[1] = test system: Caenorhabditis elegans N2; test: AC50 for larval growth inhibition (Hill fit); higher = less potent
Procedure, shortened: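 AC50 values come from a constrained Hill fit by weighted genetic-algorithm regression and are censored when out of range. The fit used only wells with at least 10 worms. Each well of a 96-well plate held 50 synchronised C. elegans N2 L1 larvae in K-medium with killed OP50, 1% DMSO and 0.5–200 µM chemical for 48 h at 20°C. A COPAS Biosort recorded each worm's size as extinction, which was log-transformed and averaged per well.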

[2] = test system: Caenorhabditis elegans N2; test: lowest effective concentration for larval growth inhibition (size below effect threshold); higher = less potent
Procedure, shortened: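 Log-transformed well means of per-worm extinction, read as size on a Biosort, came from 50 C. elegans N2 L1 larvae per 96-well grown 48 h at 20°C in K-medium with killed bacteria, 1% DMSO and 0.5 to 200 µM chemical. The lowest effective concentration is the first dose at which the plate-adjusted mean size is below the threshold and stays below it at every higher dose. The threshold is 5.665.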

[3] = test system: Caenorhabditis elegans N2; test: mean nematode size ln(EXT) after 48 h, plate-adjusted (DMSO control set to 6) (ln(EXT), control-adjusted); higher = larger nematodes / less growth inhibition
Procedure, shortened: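 In K-medium with killed OP50, 1% DMSO and 0.5–200 µM chemical, synchronised N2 L1 larvae of C. elegans (50 per well) grew for 48 h at 20°C. Extinction was read for every worm on the Biosort, with debris removed by a growth model. Natural-log values averaged per well gave mean size, which was corrected per plate by subtracting the vehicle control mean and adding 6.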

Compound	AC50 for larval growth inhibition [1]	lowest effective concentration [2]	mean nematode size ln(EXT) (ln) ([3]; 0.5 µM)	mean nematode size ln(EXT) (ln) ([3]; 1 µM)	mean nematode size ln(EXT) (ln) ([3]; 5 µM)	mean nematode size ln(EXT) (ln) ([3]; 10 µM)	mean nematode size ln(EXT) (ln) ([3]; 50 µM)	mean nematode size ln(EXT) (ln) ([3]; 100 µM)	mean nematode size ln(EXT) (ln) ([3]; 200 µM)
C[C@]12C=CC(=O)C=C1CC[C@@H]1[C@@H]2C(=O)C[C@@]2(C)[C@H]1CC[C@]2(O)C(=O)CO [Prednisone]	52.4 µM	100 µM	6.09	5.82	5.85	5.87	5.86	5.47	5.62
CC(C)(OOC(C)(C)c1ccccc1)c1ccccc1 [Dicumyl peroxide’-(Dioxydipropane-2,2-diyl)dibenzene)]	> 200 µM	50 µM	5.83	5.8	5.83	5.82	5.62	5.38	5.45
CNC(=O)Oc1cccc(/N=C/N(C)C)c1 [Formetanate hydrochloride]	62.8 µM	100 µM	5.85	6.01	6	5.93	5.73	5.59	5.47
O=C(OCCCCCOC(=O)c1ccccc1)c1ccccc1 [1,5-Pentanediol,1,5-dibenzoate]	> 200 µM	200 µM	5.88	5.89	5.84	5.85	5.86	5.98	5.48
CC(C)Oc1cc(-n2nc(C(C)(C)C)oc2=O)c(Cl)cc1Cl [Oxadiazon]	120 µM	200 µM	6.14	6.23	6.09	5.95	6.05	5.95	3.29
CCCCCCCC/C=C\CCCCCCCC(=O)OC[C@@H](O)[C@H]1OC[C@H](O)[C@H]1O [Sorbitan, mono-(9Z)-9-octadecenoate]	> 200 µM	200 µM	5.92	5.88	5.92	5.89	5.89	5.83	5.34
O=C(O)Cn1c(=O)n(Cc2ccc(Br)cc2F)c(=O)c2ccc(Cl)cc21 [Zenarestat]	> 200 µM	200 µM	5.91	5.87	5.84	6.11	5.77	5.77	5.4
CCc1cccc(C)c1N(C(=O)CCl)C(C)COC (configuration not stated) [Metolachlor]	> 200 µM	50 µM	5.64	5.7	5.74	5.81	5.63	5.63	5.64
CC(C)Oc1cccc(NC(=O)c2ccccc2C(F)(F)F)c1 [Flutolanil]	192 µM	200 µM	5.94	5.98	6.08	6.01	5.5	6.3	5.43
ClC1=C(Cl)C2(Cl)C3C4C=CC(C4)C3C1(Cl)C2(Cl)Cl (configuration not stated) [Aldrin]	3.92 µM	1 µM	5.97	5.64	4.59	3.88	3.6	3.76	3.25
CCCCN(CC)c1c([N+](=O)[O-])cc(C(F)(F)F)cc1[N+](=O)[O-] [Benfluralin]	175 µM	50 µM	5.76	5.73	5.82	5.7	5.31	5.04	4.16
Cc1oc(-c2ccccc2)nc1CCOc1cccc2c1ccn2CCC(=O)O	> 200 µM	200 µM	5.73	5.92	5.85	5.73	5.67	5.81	5.52
C[C@@H]1[C@@H](c2ccc(Cl)cc2)SC(=O)N1C(=O)NC1CCCCC1 [Hexythiazox]	122 µM	100 µM	6.07	5.94	5.91	5.99	5.68	5.34	3.24
CC(C)OC(=O)C(C)(C)Oc1ccc(C(=O)c2ccc(Cl)cc2)cc1 [Fenofibrate]	121 µM	10 µM	5.83	5.81	5.75	5.61	5.19	4.62	4.22
N#Cc1c[nH]cc1-c1cccc2c1OC(F)(F)O2 [Fludioxonil]	101 µM	100 µM	6.15	6.03	6.08	6.01	6.06	5.27	4.42
ClC1=C(Cl)[C@]2(Cl)[C@@H]3[C@@H]4C[C@@H]([C@H]5O[C@@H]45)[C@@H]3[C@@]1(Cl)C2(Cl)Cl [Dieldrin]	171 µM	5 µM	5.78	5.82	5.39	5.26	5.12	5.07	4.21
Cc1c(F)c(F)c(COC(=O)[C@@H]2[C@H](/C=C(\Cl)C(F)(F)F)C2(C)C)c(F)c1F (racemic) [Tefluthrin]	> 200 µM	50 µM	5.7	5.77	5.71	5.79	5.39	5.29	5.13
CC(C)COC(=O)CCCCC(=O)OCC(C)C [Diisobutyl adipate]	53.6 µM	100 µM	5.93	5.89	5.73	5.85	5.74	4.35	5.38
CC(COc1ccc(Oc2ccccc2)cc1)Oc1ccccn1 (configuration not stated) [Pyriproxyfen]	1.37 µM	≤ 0.5 µM	5.55	5.44	5.14	4.87	4.84	4.7	4.81
COP(=O)(OC)C(O)C(Cl)(Cl)Cl (configuration not stated) [Trichlorfon]	80.1 µM	5 µM	5.57	5.69	5.42	5.31	4.77	4.73	3.96
CCCCCCCC1CCC(=O)O1 (configuration not stated) [5-Heptyldihydro-2(3H)-furanone]	182 µM	200 µM	5.94	5.81	5.79	5.79	5.76	5.87	4.09
CC(=O)NC1(c2cccc(F)c2)CCN(CC[C@@]2(c3ccc(Cl)c(Cl)c3)CN(c3ccccc3)C(=O)CO2)CC1	> 200 µM	100 µM	5.89	5.91	5.85	5.88	5.82	5.52	5.02

Compound	AC50 for larval growth inhibition [1]	lowest effective concentration [2]	mean nematode size ln(EXT) (ln) ([3]; 0.5 µM)	mean nematode size ln(EXT) (ln) ([3]; 1 µM)	mean nematode size ln(EXT) (ln) ([3]; 5 µM)	mean nematode size ln(EXT) (ln) ([3]; 10 µM)	mean nematode size ln(EXT) (ln) ([3]; 50 µM)	mean nematode size ln(EXT) (ln) ([3]; 100 µM)	mean nematode size ln(EXT) (ln) ([3]; 200 µM)
O=C(NC(=O)c1cc(F)c(F)cc1Cl)Nc1cc(F)ccc1N1CCC(C(=O)O)CC1	91.3 µM	200 µM	5.94	5.9	5.94	5.9	5.93	5.73	5.57
Cl[C@H]1[C@H](Cl)[C@@H](Cl)[C@@H](Cl)[C@H](Cl)[C@H]1Cl [Lindane]	175 µM	50 µM	5.77	5.98	5.79	5.94	5.42	5.2	4.35
COCC(C)OCC(C)O (configuration not stated) [Propanol, 1 (or 2)-(2-methoxymethylethyoxy)-]	> 200 µM	200 µM	5.9	5.9	5.88	5.85	5.92	5.82	5.66
Cc1ccc2ncccc2c1 [6-Methylquinoline]	> 200 µM	200 µM	5.98	5.83	5.87	5.76	5.74	5.67	5.52
CCCCN1C(=O)[C@@H]([C@H](O)C2CCCCC2)NC(=O)C12CCN(Cc1ccc(Oc3ccc(C(=O)O)cc3)cc1)CC2 [Aplaviroc hydrochloride]	> 200 µM	200 µM	5.87	5.82	5.8	5.88	5.87	5.74	5.55
c1ccc(-c2ccccc2)cc1 [Biphenyl]	164 µM	200 µM	5.85	5.87	5.9	5.96	5.92	5.74	3.88
CCCCC(C#N)(Cn1cncn1)c1ccc(Cl)cc1 (configuration not stated) [Myclobutanil]	> 200 µM	100 µM	5.83	5.77	5.8	5.86	5.68	5.55	4.8
CS(=O)(=O)c1ccc(C(=O)C2C(=O)CCCC2=O)c([N+](=O)[O-])c1 [Mesotrione]	107 µM	200 µM	5.87	5.92	5.92	6.03	5.9	5.68	5.41
C[C@]12CC[C@@H]3c4ccc(O)cc4CC[C@H]3[C@@H]1CC[C@@H]2O [beta-Estradiol]	188 µM	200 µM	5.85	5.81	5.8	5.84	5.75	5.94	5.2
O=S(=O)(O)C(F)(F)C(F)(F)C(F)(F)C(F)(F)C(F)(F)C(F)(F)F [Potassium perfluorohexanesulfonate]	> 200 µM	100 µM	5.85	5.87	5.87	5.85	5.76	5.55	5.31
CCCCCCCCCCCCN1CCCC1=O [N-Lauryl-2-pyrrolidone]	16.1 µM	≤ 0.5 µM	5.42	5.51	5.45	4.97	3.49	3.53	3.03
COc1ccc(O)c(C(C)(C)C)c1 [2-tert-Butyl-4-methoxy-phenol]	> 200 µM	200 µM	5.78	5.98	5.87	5.84	5.94	5.8	5.54
Clc1ccc(Cl)cc1 [1,4-Dichlorobenzene]	> 200 µM	200 µM	5.89	5.93	5.94	5.84	5.84	5.73	5.58
CCCCCCCCCCCC[N+](C)(C)C [Dodecyl trimethyl ammonium chloride]	199 µM	100 µM	5.76	6.02	5.88	5.9	5.76	5.65	4.53
N=C(N)c1ccc(OCCCCCOc2ccc(C(=N)N)cc2)cc1 [Pentamidine isethionate salt]	149 µM	50 µM	6.04	6.06	6	5.89	5.44	5.05	4.25
CCC(C)(C)c1ccc(O)c(C(C)(C)CC)c1 [Phenol, 2,4-bis(1,1-dimethylpropyl)-]	175 µM	10 µM	5.8	5.87	5.76	5.65	5.4	4.93	4.37
O=C(Nc1ccccc1)Nc1ccnc(Cl)c1 [Forchlorfenuron]	> 200 µM	50 µM	5.77	5.96	5.81	5.82	5.44	5.54	4.5
CC(C)(c1ccccc1)c1ccc(O)cc1 [4-Cumylphenol]	110 µM	100 µM	6.04	5.96	5.97	5.84	5.92	5.3	4.34
CCN1CCC2(CC1)COc1cc3c(cc12)N(C(=O)c1ccc(-c2ccc(-c4nnc(C)o4)cc2C)cc1)CC3	52.6 µM	50 µM	5.74	5.82	5.74	5.84	5.56	4.06	4.5
Oc1ccc2ccc3cccc4ccc1c2c34 [1-Hydroxypyrene]	16 µM	50 µM	6	5.88	5.84	5.75	3.72	3.8	3.87
C=CCOC(=O)c1ccccc1C(=O)OCC=C [Diallyl phthalate]	> 200 µM	200 µM	5.88	5.92	5.94	5.96	5.88	5.84	5.65
